Reference: patent publication US7256252B1, “Methods for detecting cell apoptosis” (Cephalon, Inc., priority 1996, dated 2007)

Key:
Hippocampal neurons = assay type: cell-based; conditions: hippocampal neurons in primary culture, 3-nitropropionic acid applied
From the text: Similar results were obtained with other cells. Hippocampal neurons grown in primary culture were stimulated to die by application of the neurotoxic metabolic poison 3-nitropropionic acid.

HL60 cells = assay: Etoposide-triggered apoptotic proteolysis in HL60 cells (immunoblot); assay type: cell-based, human; conditions: 17 micromolar etoposide, 2 or 4 hours
Procedure: HL60 cells (obtained from the American Type Culture Collection, Rockville, Md.) were cultured using published techniques (Collins et al., Nature, 270:347-349 (1977), incorporated herein by reference). Cultures of cells were incubated with either 17 micromolar etoposide (from a 1000× stock solution made in dimethylsulfoxide) to trigger apoptosis or a vehicle. After either 2 or 4 hours, cells were lysed in ice cold 25 millimolar (mM) HEPES (pH 7.5), 5 mM MgCl2, 0.1% Triton X-100 and a cocktail of protease inhibitors (1 mM EGTA, 10 micrograms per ml of aprotinin, 10 micrograms per ml of leupeptin, 7 micrograms per ml of pepstatin A, 1 mM phenylmethylsulfonylfluoride (PMSF). The resulting cell lysates were subjected to SDS-polyacrylamide gel electrophoresis on 4-20% Tris-glycine gradient gels, and the separated proteins transferred to nitrocellulose membranes by Western blotting. The blots were immunostained with Ab127 ( 1/5,000) followed by incubation with alkaline phosphatase conjugated goat anti-rabbit IgG (Bio-Rad, Burlingame, Calif.) and visualized as described previously (Roberts-Lewis et al., J. Neurosci. 14:3934-3944 (1994), incorporated herein by reference).

| Structure (SMILES) | apoptotic neurons by Hoechst 33258 nuclear stain (Hippocampal neurons) | level of about 30 kDa immunoreactive polypeptide (HL60 cells) |
| --- | --- | --- |
| O=C(O)CC[N+](=O)[O-] [3-nitropropionic acid] | presence of apoptotic neurons |  |
| COc1cc([C@@H]2c3cc4c(cc3[C@@H](O[C@@H]3O[C@@H]5CO[C@@H](C)O[C@H]5[C@H](O)[C@H]3O)[C@H]3COC(=O)[C@H]23)OCO4)cc(OC)c1O [etoposide] |  | increased with increasing time of cell exposure |
